Values quoted from earlier work in patent US20250186477A1, “COMPOSITIONS COMPRISING FLUDARABINE PHOSPHATE AND METHODS OF MAKING AND USING SAME TO TREAT CANCER” (Areva Pharmaceuticals Limited, priority 2023, published 2025).

Details: refractory chronic lymphocytic leukemia patients receiving 22-40 mg/m^2 or 15-25 mg/m^2 fludarabine daily

Nc1nc(F)nc2c1ncn2[C@@H]1O[C@H](CO)[C@@H](O)[C@@H]1O [fludarabine, (2R,3S,4S,5R)-2-(6-amino-2-fluoropurin-9-yl)-5-(hydroxymethyl)oxolane-3,4-diol]
pneumonia: high rates of pneumonia
